# According to patent US11319299B2, “Substituted carboxamides as inhibitors of WDR5 protein-protein binding” (PROPELLON THERAPEUTICS INC., priority 2016, dated 2022):
# Target: WDR5 (Homo sapiens (Human), UniProt P61964)
# Assay: Surface Plasmon Resonance (SPR) assay, KD and residence time
# Assay type: binding
# Settings: surface plasmon resonance (SPR) assay; read-out: WDR5 binding affinity (KD)
row,Kd [nM],Molecule
1,5.12,"C[C@@H]1CN(c2cc(F)c(-c3cccc(CN4CCC(F)CC4)c3)cc2NC(=O)c2c[nH]c(=O)cc2C(F)(F)F)C[C@H](C)N1C [Example 119, N-[4-fluoro-5-[3-[(4-fluoropiperidin-1-yl)methyl]phenyl]-2-[(3R,5S)-3,4,5-trimethylpiperazin-1-yl]phenyl]-6-oxo-4-(trifluoromethyl)-1H-pyridine-3-carboxamide]"
2,76.9,"C[C@@H]1CN(c2cc(F)c(-c3ccc(OCC4CC4)nc3)cc2NC(=O)c2cc(Cl)cc(Cl)c2)C[C@H](C)N1C [Example 250, 3,5-dichloro-N-[5-[6-(cyclopropylmethoxy)pyridin-3-yl]-4-fluoro-2-[(3R,5S)-3,4,5-trimethylpiperazin-1-yl]phenyl]benzamide]"
3,442,"C[C@@H]1CN(c2cc(F)c(-c3cnc(N4CCOCC4)nc3)cc2NC(=O)c2cc(C(F)(F)F)ccc2F)C[C@H](C)N1C [Example 189, 2-fluoro-N-[4-fluoro-5-(2-morpholin-4-ylpyrimidin-5-yl)-2-[(3R,5S)-3,4,5-trimethylpiperazin-1-yl]phenyl]-5-(trifluoromethyl)benzamide]"
4,19.7,"COc1cc(C#N)c(C(=O)Nc2cc(-c3cnc(N4CCOCC4)nc3)c(F)cc2N2C[C@@H](C)N(C)[C@@H](C)C2)cn1 [Example 137, 4-cyano-N-[4-fluoro-5-(2-morpholin-4-ylpyrimidin-5-yl)-2-[(3R,5S)-3,4,5-trimethylpiperazin-1-yl]phenyl]-6-methoxypyridine-3-carboxamide]"
5,63.1,"C[C@@H]1CN(c2cc(F)c(-c3cnc(N4CCOCC4)nc3)cc2NC(=O)c2cc(C(F)(F)F)[nH]n2)C[C@H](C)N1C [Example 321, N-[4-fluoro-5-(2-morpholin-4-ylpyrimidin-5-yl)-2-[(3R,5S)-3,4,5-trimethylpiperazin-1-yl]phenyl]-5-(trifluoromethyl)-1H-pyrazole-3-carboxamide]"
6,0.569,"CC1CN(c2cc(F)c(-c3cnc(N4CCOCC4)nc3)cc2NC(=O)c2ccc(F)cc2C(F)(F)F)CCN1C (stereo in doubt) [Example 299, 4-fluoro-N-[4-fluoro-5-(2-morpholin-4-ylpyrimidin-5-yl)-2-[(3R)-3,4-dimethylpiperazin-1-yl]phenyl]-2-(trifluoromethyl)benzamide]"
7,0.722,"C[C@@H]1CN(c2cc(F)c(-c3cnc(N4CC(C)(C)OC(C)(C)C4)nc3)cc2NC(=O)c2c[nH]c(=O)cc2C(F)(F)F)C[C@H](C)N1C [Example 320, N-[4-fluoro-2-[(3R,5S)-3,4,5-trimethylpiperazin-1-yl]-5-[2-(2,2,6,6-tetramethylmorpholin-4-yl)pyrimidin-5-yl]phenyl]-6-oxo-4-(trifluoromethyl)-1H-pyridine-3-carboxamide]"
8,35.4,"C[C@@H]1CN(c2cc(F)c(-c3cncc(C(F)(F)F)c3)cc2NC(=O)c2cn(C)c(=O)cc2C(F)(F)F)C[C@H](C)N1C [Example 180, N-[4-fluoro-2-[(3R,5S)-3,4,5-trimethylpiperazin-1-yl]-5-[5-(trifluoromethyl)pyridin-3-yl]phenyl]-1-methyl-6-oxo-4-(trifluoromethyl)pyridine-3-carboxamide]"
9,2.5,"Cc1cc(-c2cc(NC(=O)c3c[nH]c(=O)cc3C(F)(F)F)c(N3C[C@@H](C)N(C)[C@@H](C)C3)cc2F)cnc1N1CCOCC1 [Example 171, N-[4-fluoro-5-(5-methyl-6-morpholin-4-ylpyridin-3-yl)-2-[(3R,5S)-3,4,5-trimethylpiperazin-1-yl]phenyl]-6-oxo-4-(trifluoromethyl)-1H-pyridine-3-carboxamide]"
10,120,"C[C@@H]1CN(c2cc(F)c(-c3cnc(N4CCOCC4)nc3)cc2NC(=O)c2sccc2C(F)(F)F)C[C@H](C)N1C [Example 211, N-[4-fluoro-5-(2-morpholin-4-ylpyrimidin-5-yl)-2-[(3R,5S)-3,4,5-trimethylpiperazin-1-yl]phenyl]-3-(trifluoromethyl)thiophene-2-carboxamide]"
11,0.623,"C[C@@H]1CN(c2cc(F)c(-c3ccc4c(c3)OCCN4C)cc2NC(=O)c2c[nH]c(=O)cc2C(F)(F)F)C[C@H](C)N1C [Example 71, N-[4-fluoro-5-(4-methyl-2,3-dihydro-1,4-benzoxazin-7-yl)-2-[(3R,5S)-3,4,5-trimethylpiperazin-1-yl]phenyl]-6-oxo-4-(trifluoromethyl)-1H-pyridine-3-carboxamide]"

# Same assay, conditions: surface plasmon resonance (SPR); read-out: WDR5 binding affinity (KD)
row,Kd [nM],Molecule
1,0.108,"C[C@@H]1CN(c2cc(F)c(C3=CCCN(c4ncc(CN5CCN(C)CC5)cn4)C3)cc2NC(=O)c2c[nH]c(=O)cc2C(F)(F)F)C[C@H](C)N1C [Example 416, N-[4-fluoro-5-[1-[5-[(4-methylpiperazin-1-yl)methyl]pyrimidin-2-yl]-3,6-dihydro-2H-pyridin-5-yl]-2-[(3R,5S)-3,4,5-trimethylpiperazin-1-yl]phenyl]-6-oxo-4-(trifluoromethyl)-1H-pyridine-3-carboxamide]"
2,7.31,"C[C@@H]1CN(c2cc(F)c(C3=CCCN(c4ncc(C#N)s4)CC3)cc2NC(=O)c2c[nH]c(=O)cc2C(F)(F)F)C[C@H](C)N1C [Example 700, N-[5-[1-(5-cyano-1,3-thiazol-2-yl)-2,3,6,7-tetrahydroazepin-4-yl]-4-fluoro-2-[(3R,5S)-3,4,5-trimethylpiperazin-1-yl]phenyl]-6-oxo-4-(trifluoromethyl)-1H-pyridine-3-carboxamide]"
3,69.5,"C[C@@H]1CN(c2cc(F)c(-c3cc(C(N)=O)c(F)cc3F)cc2NC(=O)c2ccc(F)cc2C(F)(F)F)C[C@H](C)N1C [Example 634, 2,4-difluoro-5-[2-fluoro-5-[[4-fluoro-2-(trifluoromethyl)benzoyl]amino]-4-[(3R,5S)-3,4,5-trimethylpiperazin-1-yl]phenyl]benzamide]"
4,1.97,"CCOC(=O)N1CCC=C(c2cc(NC(=O)c3c[nH]c(=O)cc3C(F)F)c(N3C[C@@H](C)N(C)[C@@H](C)C3)cc2F)C1 [Example 648, Ethyl 5-[5-[[4-(difluoromethyl)-6-oxo-1H-pyridine-3-carbonyl]amino]-2-fluoro-4-[(3R,5S)-3,4,5-trimethylpiperazin-1-yl]phenyl]-3,6-dihydro-2H-pyridine-1-carboxylate]"
5,5.6,"C[C@@H]1CN(c2nccc(-c3cc(NC(=O)c4cn(C)c(=O)cc4C(F)F)c(N4C[C@@H](C)N(C)[C@@H](C)C4)cc3F)n2)C[C@H](C)O1 [Example 745, 4-(difluoromethyl)-N-[4-fluoro-5-[2-[(2R,6S)-2,6-dimethylmorpholin-4-yl]pyrimidin-4-yl]-2-[(3R,5S)-3,4,5-trimethylpiperazin-1-yl]phenyl]-1-methyl-6-oxopyridine-3-carboxamide]"
6,0.9,"C[C@@H]1CN(c2cc(F)c(-c3cc(F)c(C(=O)N[C@@H]4CCOC4)c(F)c3)cc2NC(=O)c2c[nH]c(=O)cc2C(F)(F)F)C[C@H](C)N1C [Example 762, 6-oxo-N-(3′,5′,6-trifluoro-4′-(((R)-tetrahydrofuran-3-yl)carbamoyl)-4-((3S,5R)-3,4,5-trimethylpiperazin-1-yl)-[1,1′-biphenyl]-3-yl)-4-(trifluoromethyl)-1,6-dihydropyridine-3-carboxamide]"
7,4.59,"C[C@@H]1CN(c2cc(F)c(-c3csc(C(=O)NCC4CC4)n3)cc2NC(=O)c2cn(C)c(=O)cc2C(F)(F)F)C[C@H](C)N1C [Example 523, N-(cyclopropylmethyl)-4-[2-fluoro-5-[[1-methyl-6-oxo-4-(trifluoromethyl)pyridine-3-carbonyl]amino]-4-[(3R,5S)-3,4,5-trimethylpiperazin-1-yl]phenyl]-1,3-thiazole-2-carboxamide]"
8,7.82,"C[C@@H]1CN(c2cc(F)c(-c3ccc4ncsc4c3)cc2NC(=O)c2cn(C)c(=O)cc2C(F)F)C[C@H](C)N1C [Example 684, N-[5-(1,3-benzothiazol-6-yl)-4-fluoro-2-[(3R,5S)-3,4,5-trimethylpiperazin-1-yl]phenyl]-4-(difluoromethyl)-1-methyl-6-oxopyridine-3-carboxamide]"
9,2.88,"C[C@@H]1CN(c2cc(F)c(C3=CCN(c4ncc(F)cn4)C3)cc2NC(=O)c2c[nH]c(=O)cc2C(F)(F)F)C[C@H](C)N1C [Example 440, N-[4-fluoro-5-[1-(5-fluoropyrimidin-2-yl)-2,5-dihydropyrrol-3-yl]-2-[(3R,5S)-3,4,5-trimethylpiperazin-1-yl]phenyl]-6-oxo-4-(trifluoromethyl)-1H-pyridine-3-carboxamide]"
10,8.27,"C[C@@H]1CN(c2cc(F)c(-c3ncc(CN4CCOCC4)s3)cc2NC(=O)c2c[nH]c(=O)cc2C(F)(F)F)C[C@H](C)N1C [Example 751, N-[4-fluoro-5-[5-(morpholin-4-ylmethyl)-1,3-thiazol-2-yl]-2-[(3R,5S)-3,4,5-trimethylpiperazin-1-yl]phenyl]-6-oxo-4-(trifluoromethyl)-1H-pyridine-3-carboxamide]"
11,1.71,"C[C@@H]1CN(c2cc(F)c(-c3nc(CN4CCOCC4)cs3)cc2NC(=O)c2c[nH]c(=O)cc2C(F)(F)F)C[C@H](C)N1C [Example 750, N-[4-fluoro-5-[4-(morpholin-4-ylmethyl)-1,3-thiazol-2-yl]-2-[(3R,5S)-3,4,5-trimethylpiperazin-1-yl]phenyl]-6-oxo-4-(trifluoromethyl)-1H-pyridine-3-carboxamide]"
12,0.959,"C[C@@H]1CN(c2ccc(-c3cc(NC(=O)c4c[nH]c(=O)cc4C(F)F)c(N4CCN(C)[C@@H](C)C4)cc3F)cn2)C[C@H](C)O1 [Example 514, 4-(difluoromethyl)-N-[4-fluoro-5-[6-[(2R,6S)-2,6-dimethylmorpholin-4-yl]pyridin-3-yl]-2-[(3S)-3,4-dimethylpiperazin-1-yl]phenyl]-6-oxo-1H-pyridine-3-carboxamide]"
13,1.09,"CC1CN(c2cc(F)c(-c3cnc(N4CCN(C(C)(C)C)CC4)nc3)cc2NC(=O)c2ccc(F)cc2C(F)(F)F)CCN1C (stereo in doubt) [Example 557, N-[5-[2-(4-tert-butylpiperazin-1-yl)pyrimidin-5-yl]-4-fluoro-2-[(3R)-3,4-dimethylpiperazin-1-yl]phenyl]-4-fluoro-2-(trifluoromethyl)benzamide]"

row,Molecule,Kd [nM]
1,"N-[4-fluoro-5-[2-[(2R,6S)-2,6-dimethylmorpholin-4-yl]pyrimidin-4-yl]-2-[(3R)-3,4-dimethylpiperazin-1-yl]phenyl]-6-oxo-4-(trifluoromethyl)-1H-pyridine-3-carboxamide [Example 698]",1.59
